# Data from patent US9963455B2, “Pyrazolo[1,5-a]pyrimidines as antiviral compounds” (Curovir AB, priority 2014, dated 2018).
# Like-named read-outs stand apart in the source and are kept apart here.
# Experiments:
# Type in all cases: cell-based
# Ljungan virus strain 012 = assay: CPE inhibition in mammalian cell culture, LV012; conditions: Parechovirus B; for inhibition at 5 µM: Conc. 5 µM; for inhibition at 100 µM: Conc. 0.1 mM
# [1] = tested on: Human parechovirus strain 1; assay: CPE inhibition in mammalian cell culture, HPeV-1; conditions: Parechovirus A; for inhibition at 5 µM: Conc. 5 µM; for inhibition at 2.5 µM: Conc. 2.5 µM
# Enterovirus strain 6 = assay: microbe, parasite or virus in culture; design: inhibition: dose or concentration left out as unconfirmed; conditions: for inhibition: read-out: antiviral effect, EV6
# Enterovirus strain 30 = assay: CPE inhibition in mammalian cell culture, EV30; design: inhibition: dose or concentration left out as unconfirmed; conditions: for inhibition at 5 µM: Conc. 5 µM; for inhibition at 2.5 µM: Conc. 2.5 µM; for inhibition at 100 µM: Conc. 0.1 mM
# [2] = tested on: coxsackie B virus strain 1; assay: CPE inhibition in mammalian cell culture, Cox-B1; design: inhibition: dose or concentration left out as unconfirmed
# [3] = tested on: coxsackie B virus strain 2; assay: CPE inhibition in mammalian cell culture, Cox-B2; design: inhibition: dose or concentration left out as unconfirmed; conditions: read-out: antiviral effect, B2
# [4] = tested on: coxsackie B virus strain 3; assay: CPE inhibition in mammalian cell culture, Cox-B3; design: inhibition: dose or concentration left out as unconfirmed
# [5] = tested on: coxsackie B virus strain 4; assay: CPE inhibition in mammalian cell culture, Cox-B4
# [6] = tested on: coxsackie B virus strain 5; assay: CPE inhibition in mammalian cell culture, Cox-B5; design: inhibition: dose or concentration left out as unconfirmed
# polio virus strain 1 = assay: microbe, parasite or virus in culture; design: inhibition: dose or concentration left out as unconfirmed; conditions: read-out: antiviral effect, Polio 1
# [7] = tested on: encephalomyocarditis virus; assay: CPE inhibition in mammalian cell culture, EMCV; design: inhibition: dose or concentration left out as unconfirmed; conditions: Cardiovirus A; for inhibition at 10 µM: Conc. 10.0 μM; for inhibition at 100 µM: Conc. 0.1 mM
# Ljungan virus strain 145 = assay: CPE inhibition in mammalian cell culture, LV145; design: inhibition: dose or concentration left out as unconfirmed; conditions: Parechovirus B; for inhibition at 100 µM: Conc. 0.1 mM
# Enterovirus strain 71 = assay: CPE inhibition in mammalian cell culture, EV71; design: inhibition: dose or concentration left out as unconfirmed; conditions: read-out: antiviral effect, EV71; for inhibition at 100 µM: Conc. 0.1 mM
# [8] = read-out: antiviral effect, LV012
# [9] = read-out: antiviral effect, HPeV-1
# [10] = read-out: antiviral effect, EV30
# [11] = Conc. 2.5 µM, read-out: antiviral effect, LV012
# [12] = HPeV-1, Conc. 10.0 μM, read-out: % inh.
# [13] = read-out: antiviral effect, LV145
# [14] = read-out: antiviral effect, EMCV
structure (smiles),measurement,setting,value
"COc1ccc(-c2c(C)nn3c(NCc4ccc(Cl)cc4)cc(C)nc23)cc1OC [Ex. 1, N-[(4-chlorophenyl)methyl]-3-(3,4-dimethoxyphenyl)-2,5-dimethyl-pyrazolo[1,5-a]pyrimidin-7-amine]",inhibition at 5 µM,Ljungan virus strain 012; [8],34%
same,inhibition at 5 µM,[1]; [9],14%
same,inhibition,Enterovirus strain 6; Conc.,90%
same,inhibition at 0.25 µM,Enterovirus strain 6; read-out: % inh.,75%
same,inhibition at 5 µM,Enterovirus strain 30; [10],100%
same,inhibition at 5000 µM,"[2]; read-out: antiviral effect, B1",93%
same,inhibition at 5000 µM,[3],60%
same,inhibition at 5000 µM,"[4]; read-out: antiviral effect, B3",95%
same,inhibition at 5000 µM,"[5]; read-out: antiviral effect, B4",86%
same,inhibition at 5000 µM,"[6]; read-out: antiviral effect, B5",90%
same,inhibition at 5000 µM,polio virus strain 1,31%
"COc1ccc(CNc2cc(C)nc3c(-c4ccc(OC)c(OC)c4)c(C)nn23)cc1 [Ex. 2, 3-(3,4-dimethoxyphenyl)-N-[(4-methoxyphenyl)methyl]-2,5-dimethyl-pyrazolo[1,5-a]pyrimidin-7-amine]",inhibition at 5 µM,Ljungan virus strain 012; [8],49%
same,inhibition at 5 µM,[1]; [9],0%
same,inhibition,Enterovirus strain 6; Conc.,83%
same,inhibition at 5 µM,Enterovirus strain 30; [10],91%
same,inhibition at 0.25 µM,"Enterovirus strain 30; EV30, Conc. 0.25 μM",85%
same,inhibition at 5000 µM,"[2]; read-out: antiviral effect, B1",91%
same,inhibition at 5000 µM,[3],93%
same,inhibition at 5000 µM,"[4]; read-out: antiviral effect, B3",97%
same,inhibition at 5000 µM,"[5]; read-out: antiviral effect, B4",86%
same,inhibition at 5000 µM,"[6]; read-out: antiviral effect, B5",91%
same,inhibition at 5000 µM,polio virus strain 1,90%
"Cc1cc(NC(C)c2ccccc2)n2nc(C)c(-c3ccc(F)cc3)c2n1 (stereo not shown) [Ex. 3, 3-(4-fluorophenyl)-2,5-dimethyl-N-(1-phenylethyl)pyrazolo[1,5-a]pyrimidin-7-amine]",inhibition at 2.5 µM,"[7]; EMCV, Conc. 2.5 μM",92%
"COc1ccc(-c2c(C)nn3c(NCCc4ccc(Cl)cc4)cc(C)nc23)cc1OC [Ex. 5, N-[2-(4-chlorophenyl)ethyl]-3-(3,4-dimethoxyphenyl)-2,5-dimethyl-pyrazolo[1,5-a]pyrimidin-7-amine]",inhibition at 5 µM,Ljungan virus strain 012; [8],18%
same,inhibition at 5 µM,[1]; [9],22%
same,inhibition,Enterovirus strain 6; Conc.,80%
same,inhibition at 5 µM,Enterovirus strain 30; [10],58%
same,inhibition at 5000 µM,"[2]; read-out: antiviral effect, B1",79%
same,inhibition at 5000 µM,[3],76%
same,inhibition at 0.25 µM,[5]; read-out: % inh.,71%
same,inhibition at 5000 µM,"[5]; read-out: antiviral effect, B4",97%
same,inhibition at 5000 µM,"[6]; read-out: antiviral effect, B5",94%
same,inhibition at 5000 µM,polio virus strain 1,68%
"COc1ccc(-c2c(C)nn3c(NCCCc4ccccc4)cc(C)nc23)cc1OC [Ex. 7, 3-(3,4-dimethoxyphenyl)-2,5-dimethyl-N-(3-phenylpropyl)pyrazolo[1,5-a]pyrimidin-7-amine]",inhibition at 2.5 µM,Ljungan virus strain 012; [11],14%
same,inhibition at 2.5 µM,"Ljungan virus strain 145; LV145, Conc. 2.5 μM",54%
same,inhibition at 2.5 µM,[1]; [9],6%
same,inhibition at 2.5 µM,Enterovirus strain 30; [10],89%
same,inhibition at 2500 µM,"[2]; read-out: antiviral effect, B1",77%
same,inhibition at 2500 µM,[3],92%
same,inhibition at 2500 µM,"[5]; read-out: antiviral effect, B4",82%
same,inhibition at 2500 µM,"[6]; read-out: antiviral effect, B5",68%
same,inhibition at 2500 µM,polio virus strain 1,80%
"COc1ccc(-c2c(C)nn3c(NCc4ccc5c(c4)OCO5)cc(C)nc23)cc1OC [Ex. 8, N-(1,3-benzodioxol-5-ylmethyl)-3-(3,4-dimethoxyphenyl)-2,5-dimethyl-pyrazolo[1,5-a]pyrimidin-7-amine]",inhibition at 5 µM,Ljungan virus strain 012; [8],38%
same,inhibition at 5 µM,[1]; [9],14%
same,inhibition,Enterovirus strain 6; Conc.,88%
same,inhibition at 5 µM,Enterovirus strain 30; [10],53%
same,inhibition at 5000 µM,"[2]; read-out: antiviral effect, B1",82%
same,inhibition at 5000 µM,[3],100%
same,inhibition at 5000 µM,"[5]; read-out: antiviral effect, B4",89%
same,inhibition at 0.25 µM,[6]; read-out: % inh.,100%
same,inhibition at 5000 µM,"[6]; read-out: antiviral effect, B5",100%
same,inhibition at 5000 µM,polio virus strain 1,91%
"COc1ccc(CCNc2cc(C)nc3c(-c4ccc(OC)c(OC)c4)c(C)nn23)c(OC)c1 [Ex. 12, 3-(3,4-dimethoxyphenyl)-N-[2-(2,4-dimethoxyphenyl)ethyl]-2,5-dimethyl-pyrazolo[1,5-a]pyrimidin-7-amine]",inhibition at 2.5 µM,Ljungan virus strain 012; [11],60%
same,inhibition at 2.5 µM,"Ljungan virus strain 012; LV012, Conc. 2.5 μM, read-out: % inh.",60%
same,inhibition at 2.5 µM,[1]; [9],8%
same,inhibition at 2.5 µM,Enterovirus strain 30; [10],84%
same,inhibition at 2500 µM,"[2]; read-out: antiviral effect, B1",93%
same,inhibition at 2500 µM,"[5]; read-out: antiviral effect, B4",77%
same,inhibition at 2500 µM,"[6]; read-out: antiviral effect, B5",82%
same,inhibition at 2500 µM,polio virus strain 1,73%
"Cc1ccc(-c2c(C)nn3c(NCc4ccccn4)cc(C)nc23)cc1 [Ex. 33, 2,5-dimethyl-3-(p-tolyl)-N-(2-pyridylmethyl)pyrazolo[1,5-a]pyrimidin-7-amine]",inhibition,"Ljungan virus strain 145; Conc., read-out: antiviral effect, LV145",69%
same,inhibition,"[7]; Conc., read-out: antiviral effect, EMCV",60%
same,inhibition at 10 µM,"[1]; Conc. 10 µM, read-out: antiviral effect, HPeV-1",13%
same,inhibition at 10 µM,"Enterovirus strain 30; Conc. 10 µM, read-out: antiviral effect, EV30",85%
same,inhibition at 1 µM,"Enterovirus strain 30; EV30, Conc. 1.0 μM, read-out: % inh.",48%
same,inhibition,Enterovirus strain 71; Conc.,0%
same,inhibition at 10000 µM,[3],81%
same,inhibition at 10000 µM,"[6]; read-out: antiviral effect, B5",92%
same,inhibition at 10000 µM,polio virus strain 1,58%
"COc1ccc(-c2c(C)nn3c(NC4CCCC4)cc(C)nc23)cc1OC [Ex. 41, N-cyclopentyl-3-(3,4-dimethoxyphenyl)-2,5-dimethyl-pyrazolo[1,5-a]pyrimidin-7-amine]",inhibition at 10 µM,[7]; EMCV,93%
"COc1ccc(-c2c(C)nn3c(Nc4ccccc4)cc(C)nc23)cc1OC [Ex. 57, 3-(3,4-dimethoxyphenyl)-2,5-dimethyl-N-phenyl-pyrazolo[1,5-a]pyrimidin-7-amine]",inhibition at 10 µM,[1]; [12],22%
"COc1ccc(-c2c(C)nn3c(NCc4ccc(C(F)(F)F)cc4)cc(C)nc23)cc1OC [Ex. 72, 3-(3,4-dimethoxyphenyl)-2,5-dimethyl-N-[[4-(trifluoromethyl)phenyl]methyl]pyrazolo[1,5-a]pyrimidin-7-amine]",inhibition at 1 µM,"Ljungan virus strain 012; Conc. 1 µM, read-out: antiviral effect, LV012",0%
same,inhibition at 1 µM,"[1]; Conc. 1 µM, read-out: antiviral effect, HPeV-1",4%
same,inhibition at 1 µM,"Enterovirus strain 30; Conc. 1 µM, read-out: antiviral effect, EV30",100%
same,inhibition at 1000 µM,"[2]; read-out: antiviral effect, B1",100%
same,inhibition at 1000 µM,[3],94%
same,inhibition at 1000 µM,"[4]; read-out: antiviral effect, B3",99%
same,inhibition at 0.1 µM,[5]; read-out: % inh.,85%
same,inhibition at 1000 µM,"[5]; read-out: antiviral effect, B4",91%
same,inhibition at 1000 µM,"[6]; read-out: antiviral effect, B5",99%
same,inhibition at 1000 µM,polio virus strain 1,100%
"COc1ccc(-c2c(C)nn3c(Nc4ccc(C(F)(F)F)cc4)cc(C)nc23)cc1OC [Ex. 73, 3-(3,4-dimethoxyphenyl)-2,5-dimethyl-N-[4-(trifluoromethyl)phenyl]pyrazolo[1,5-a]pyrimidin-7-amine]",inhibition at 0.1 µM,[5]; read-out: % inh.,44%
"COc1ccc(-c2c(C)nn3c(NCc4ccc(C)nc4)cc(C)nc23)cc1OC [Ex. 92, 3-(3,4-dimethoxyphenyl)-2,5-dimethyl-N-[(6-methyl-3-pyridyl)methyl]pyrazolo[1,5-a]pyrimidin-7-amine]",inhibition at 100 µM,Ljungan virus strain 012; [8],0%
same,inhibition at 100 µM,Ljungan virus strain 145; [13],0%
same,inhibition at 100 µM,[7]; [14],0%
same,inhibition,Enterovirus strain 30; [10],100%
same,inhibition,"[2]; read-out: antiviral effect, B1",100%
same,inhibition,[3],96%
same,inhibition at 0.01 µM,[4]; read-out: % inh.,100%
same,inhibition,"[4]; read-out: antiviral effect, B3",100%
same,inhibition,"[6]; read-out: antiviral effect, B5",95%
same,inhibition,polio virus strain 1,98%
"COc1ccc(-c2c(C)nn3c(NCc4ccc(C(C)=O)cc4)cc(C)nc23)cc1OC [Ex. 94, 1-[4-[[[3-(3,4-dimethoxyphenyl)-2,5-dimethyl-pyrazolo[1,5-a]pyrimidin-7-yl]amino]methyl]phenyl]ethanone]",inhibition at 100 µM,Ljungan virus strain 012; [8],12%
same,inhibition at 100 µM,Ljungan virus strain 145; [13],0%
same,inhibition at 100 µM,[7]; [14],0%
same,inhibition at 100 µM,Enterovirus strain 30; [10],96%
same,inhibition at 100 µM,Enterovirus strain 71,100%
same,inhibition at 0.01 µM,[2]; read-out: % inh.,100%
same,inhibition,"[2]; read-out: antiviral effect, B1",100%
same,inhibition,[3],100%
same,inhibition,"[4]; read-out: antiviral effect, B3",100%
same,inhibition,"[6]; read-out: antiviral effect, B5",56%
same,inhibition,polio virus strain 1,100%
"COc1ccc(-c2c(C)nn3c(Nc4ccon4)cc(C)nc23)cc1OC [Ex. 95, N-[3-(3,4-dimethoxyphenyl)-2,5-dimethyl-pyrazolo[1,5-a]pyrimidin-7-yl]isoxazol-3-amine]",inhibition at 10 µM,[1]; [12],55%
"COc1ccc(-c2cnn3c(NCc4ccncc4)cc(C)nc23)cc1OC [Ex. 100, 3-(3,4-dimethoxyphenyl)-5-methyl-N-(4-pyridylmethyl)pyrazolo[1,5-a]pyrimidin-7-amine]",inhibition at 100 µM,Ljungan virus strain 012; [8],0%
same,inhibition at 100 µM,Ljungan virus strain 145; [13],0%
same,inhibition at 100 µM,[7]; [14],0%
same,inhibition,Enterovirus strain 6,88%
same,inhibition at 100 µM,Enterovirus strain 30; [10],78%
same,inhibition at 0.1 µM,"Enterovirus strain 30; EV30, Conc. 0.1 μM",78%
same,inhibition at 100 µM,Enterovirus strain 71,81%
same,inhibition,[3],99%
same,inhibition,"[6]; read-out: antiviral effect, B5",90%
same,inhibition,polio virus strain 1,83%
"Cc1cc(NCc2ccc(F)cc2)n2nc(C)c(-c3ccc(Cl)c(Cl)c3)c2n1 [Ex. 103, 3-(3,4-dichlorophenyl)-N-[(4-fluorophenyl)methyl]-2,5-dimethyl-pyrazolo[1,5-a]pyrimidin-7-amine]",inhibition at 10 µM,[7]; EMCV,74%
